From US20250231157A1, “METHOD FOR DETERMINING THE PARTITION OF NAPHTHENIC ACIDS FROM A PRODUCTION WATER MIMICKING SYSTEM AND MIMICKING SYSTEM” (PETRÓLEO BRASILEIRO S.A. – PETROBRAS, priority 2023, published 2025)
Several values for one entry are separate records, joined by “and”; a condition that tells them apart may be missing. Equal entries are not always repeated.

Legend:
[1] = Partition equilibrium (migration to aqueous phase) heptol/water under pressure and temperature, central composite design, potentiometric titration; assay type: physicochemical; conditions: for Migration, Predicted: model value
Protocol: Three multivariate experimental designs (central composite designs) were performed in which the variables pressure (up to 1 MPa) and temperature (between 25° C. and 80° C.) were considered independent variables, with the migration of three acidic species as the response factor: benzoic, pentanoic and cyclohexanepentanoic acid. For this purpose, 5 levels were defined and gave rise to 10 experiments for each acidic species (Table 4), added to two control experiments (with higher pressure and temperature, as well as in the absence of pressure and at room temperature).
The experiments were performed with constant salinity of 3.5% (m·v^−1), constant heptol fraction (70:30, for heptane and toluene), and acidic species concentration of 0.03 M for benzoic and pentanoic acid, and 0.01 M for cyclohexanepentanoic acid. The results were evaluated with 95% confidence, using a response surface to estimate the maximum observable effect in each case, provided that the mathematical correlation was equal to or greater than R^2: 0.75.

[2] = Control experiments: availability of the species in alkaline aqueous medium without using the reactor; assay type: physicochemical; conditions: acid solubilized directly in aqueous phase, no reactor
Protocol: Previously, the back titration procedure was internalized and optimized (Example 1), ensuring that the reproducibility of the measurements was adequate (standard deviation values below 10%, for example) and that the recoveries were close to what was expected based on the purity of the reagents (i.e., close to or above 90%). […] Control experiments were performed (measuring the availability of the species in an aqueous medium, without using the reactor) by solubilizing the organic acid directly in the aqueous phase and titrating a 10.0 mL aliquot; the same way, experiments were performed in the reactor based on the standardization of heptol and salinity already discussed (3.5%).

[3] = Partition equilibrium under the influence of salinity (NaCl), glass reactor, neutralization titration; assay type: physicochemical
Protocol: The variation in salinity (and its effect on acidic species) is due to the large variation in salinity found between the portions of bottom-hole water, middle-well water and surface water. Thus, systems with salinity (i.e., NaCl) between 3.5 and 30% (m·v^−1) were tested in a glass reactor, and neutralization titration was performed (in triplicate analysis), as previously described. Furthermore, the experimental results were generated in triplicate, using 99% NaCl (Sigma-Aldrich) with five acidic species.

[4] = Partition equilibrium in the presence of surfactants (TBA, CTA, TMA); assay type: physicochemical
From the text: The presence of chemical compounds usually added in the chain of unit operations of oil extraction and production, such as demulsifiers and surfactants, can affect the partition equilibrium of species in this water/oil system. In order to understand the extent of this effect, as well as discern the relevance of the chemical structure on this effect, the following items were chosen: • Dissolvan 961 (Clariant), composed of oil hydrocarbons (CAS 918-811-1) and ethanol (CAS 64-17-5); • Dissolvan 974 (Clariant), composed of EO-PO block polymer poly adducts and Bisphenol-A-diglycidyl ether (CAS 68123-18-2) and ethanol (CAS 64-17-5); • Tetrabutylammonium chloride (CAS 1112-67-0), 97% purity; • Cetyltrimethylammonium chloride (CAS 112-02-7), 25% in water; and • Trimethylammonium chloride (CAS 593-81-7), 98% purity.
For this study, the experiments (in triplicate) used between 100.0 and 1000.0 mg·L^−1 of each compound, comparing the results with control tests (absence of the component), all with constant salinity at 3.5% (m·v^−1). Finally, neutralization titration with a standardized NaOH titrant solution was used to determine the effect on the partition equilibrium for four acidic species (the same as in the other examples, except for dicyclohexylacetic acid).
Considering the study with surfactants, the (individual) addition of three species to the control system was evaluated (tetrabutylammonium chloride (TBA), tetramethylammonium chloride (TMA) and cetyltrimethylammonium chloride (CTA)). For this purpose, the surfactants have distinct chemical structures, namely the size of the side chain, and their eventual effect on the partition equilibrium of the acidic species was evaluated.

[5] = Partition equilibrium under the influence of salinity (NaCl), glass reactor, neutralization titration; assay type: physicochemical; conditions: Salinity 0 (%, m · m^−1) NaCl
[6] = Partition equilibrium in the presence of demulsifiers (Dissolvan 961, Dissolvan 974)
[7] = Partition equilibrium in reactor pressurized with CO2, in presence and absence of alkalinity (NaHCO3, Na2CO3), back titration
Protocol: In the initial tests, 100 mL of heptol and 300 mL of water (with or without salinity) were used, with the addition of acidic species in the organic phase, in order to verify migration to the aqueous phase. As a rule, the system was kept under agitation at 500 rpm for 8 min, followed by rest for 10 min and, finally, collection of 50.0 mL aliquots of the aqueous phase for titrimetric analysis.
A 316 stainless steel alloy reactor (Parr®) (capacity for 600 mL and operational up to 20 MPa pressure) was used. For this purpose, a temperature range between 25° C. and 80° C. and pressure between 0.1 MPa and 1.0 MPa were used, and the reactor was pressurized with CO2. Thus, the results were compared (in terms of migration of the acidic species (%, mol) by means of back titrations) and the influence of pressure and temperature on the partition was estimated, as well as possible synergistic effects with the sources of alkalinity added to the aqueous phase.

Migration, Measured ([1]; 20 °C, 0.1 MPa (experiment 12, control)): 4.0 %, mol
Migration, Increment (related to control) ([1]; 25 °C, 0.5 MPa (experiment 5)): −39.73 %, mol
Migration, Measured ([1]; 25 °C, 0.5 MPa (experiment 5)): 2.4 %, mol
Migration, Increment (related to control) ([1]; 38 °C, 0.25 MPa (experiment 1)): −42.22 %, mol
Migration, Measured ([1]; 38 °C, 0.25 MPa (experiment 1), heptol 70:30, 3.5% salinity): 2.3 %, mol
Migration, Increment (related to control) ([1]; 38 °C, 0.75 MPa (experiment 3)): 104.3 %, mol
Migration, Measured ([1]; 38 °C, 0.75 MPa (experiment 3)): 8.2 %, mol
Migration, Increment (related to control) ([1]; 52 °C, 0.1 MPa (experiment 7)): −29.8 %, mol
Migration, Measured ([1]; 52 °C, 0.1 MPa (experiment 7)): 2.8 %, mol
Migration, Measured ([1]; 52 °C, 0.5 MPa (experiments 9 and 10, centre point)): 2.6 %, mol and 3.1 %, mol
Migration, Increment (related to control) ([1]; 52 °C, 1 MPa (experiment 8)): 76.99 %, mol
Migration, Measured ([1]; 52 °C, 1 MPa (experiment 8)): 7.1 %, mol
Migration, Increment (related to control) ([1]; 66 °C, 0.25 MPa (experiment 2)): −37.25 %, mol
Migration, Measured ([1]; 66 °C, 0.25 MPa (experiment 2)): 2.5 %, mol
Migration, Increment (related to control) ([1]; 66 °C, 0.75 MPa (experiment 4)): 106.79 %, mol
Migration, Measured ([1]; 66 °C, 0.75 MPa (experiment 4)): 8.3 %, mol
Migration, Increment (related to control) ([1]; 80 °C, 0.5 MPa (experiment 6)): 157.42 %, mol
Migration, Measured ([1]; 80 °C, 0.5 MPa (experiment 6)): 10.3 %, mol
Migration, Increment (related to control) ([1]; 80 °C, 1 MPa (experiment 11)): −34.77 %, mol
Migration, Measured ([1]; 80 °C, 1 MPa (experiment 11, control)): 2.6 %, mol
Migration, Predicted ([1]; 25 °C, 0.5 MPa (experiment 5)): 4.0 %, mol
Migration, Predicted ([1]; 38 °C, 0.25 MPa (experiment 1)): 1.7 %, mol
Migration, Predicted ([1]; 38 °C, 0.75 MPa (experiment 3)): 5.1 %, mol
Migration, Predicted ([1]; 52 °C, 0.1 MPa (experiment 7)): 1.9 %, mol
Migration, Predicted ([1]; 52 °C, 0.5 MPa (experiments 9 and 10)): 3.5 %, mol
Migration, Predicted ([1]; 52 °C, 1 MPa (experiment 8)): 8.6 %, mol
Migration, Predicted ([1]; 66 °C, 0.25 MPa (experiment 2)): 4.4 %, mol
Migration, Predicted ([1]; 66 °C, 0.75 MPa (experiment 4)): 7.7 %, mol
Migration, Predicted ([1]; 80 °C, 0.5 MPa (experiment 6)): 9.3 %, mol
Migration, Predicted ([1]; 80 °C, 1 MPa (experiment 11)): 8.6 %, mol
Availability (reference value) ([2]; Na2CO3 + NaHCO3 (3.48×10^−5 mol)): 100 % mol
Availability (reference value) ([2]; NaHCO3 (3.45×10^−5 mol)): 100 % mol
Migration to aqueous medium, approximate level over the salinity study ([3]; 0-30% NaCl): ~5%
Effect of the addition of salinity on migration ([3]; 3.5-30% NaCl, 95% reliability): no significant effect
Migration ([3]; Salinity 3.5 (%, m · m^−1) NaCl): 5.5 %, mol
Migration ([3]; Salinity 18.0 (%, m · m^−1) NaCl): 5.5 %, mol
Migration ([3]; Salinity 30.0 (%, m · m^−1) NaCl): 4.8 %, mol
Migration ([4]; Absence of surfactant, salinity 3.5%): 4.9 %, mol
Migration ([4]; CTA100 (cetyltrimethylammonium chloride 100 mg · L^−1)): 2.1 %, mol
Migration ([4]; CTA1000 (1000 mg · L^−1)): 38.9 %, mol
Migration ([4]; TBA100 (tetrabutylammonium chloride 100 mg · L^−1)): 18.5 %, mol
Migration ([4]; TBA1000 (1000 mg · L^−1)): 18.4 %, mol
Migration ([4]; TMA100 (trimethylammonium chloride 100 mg · L^−1)): 0.0 %, mol
Migration ([4]; TMA1000 (1000 mg · L^−1)): 0.0 %, mol
Increase in migration to the aqueous phase with CTA ([4]; surfactant CTA, 1000 mg·L^−1): above 700%
Increase in the tendency to migrate to the aqueous phase with TBA ([4]; surfactant TBA, noticeable from 100 mg·L^−1): 370%
Effect of TMA on partition equilibrium ([4]; surfactant TMA): migration tending to zero
Migration [5]: 4.9 %, mol
Migration ([6]; Absence of ions (no demulsifier), salinity 3.5%): 4.9 %, mol
Migration ([6]; D961 50 mg · L^−1): 5.42 %, mol
Migration ([6]; D961 100 mg · L^−1): 5.16 %, mol
Migration ([6]; D961 1000 mg · L^−1): 10.2 %, mol
Migration ([6]; D974 50 mg · L^−1): 4.78 %, mol
Migration ([6]; D974 100 mg · L^−1): 5.26 %, mol
Migration ([6]; D974 1000 mg · L^−1): 12.80 %, mol
Increase in migration to the aqueous phase with demulsifier ([6]; addition of 1000 mg·L^−1 demulsifier): ~100%
Migration ([7]; 25° C. and 1.0 MPa CO2, no alkalinity): not quantifiable
Migration ([7]; 80° C. and 1.0 MPa CO2, no alkalinity): not quantifiable
Migration ([7]; Na2CO3 + NaHCO3, 25° C. and 0.1 MPa): 71.1 % mol
Migration ([7]; Na2CO3 + NaHCO3, 25° C. and 1.0 MPa CO2): 100.0 % mol
Migration ([7]; Na2CO3 + NaHCO3, 80° C. and 1.0 MPa CO2): 100.0 % mol
Migration ([7]; NaHCO3, 25° C. and 0.1 MPa): 82.7 % mol
Migration ([7]; NaHCO3, 25° C. and 1.0 MPa CO2): 100.0 % mol
Migration ([7]; NaHCO3, 80° C. and 1.0 MPa CO2): 100.0 % mol
Migration ([7]; Reference (heptol + 3.5% NaCl), no alkalinity): 4.9 % mol and 4.3 % mol
Structure (SMILES): O=C(O)CCCCC1CCCCC1 [Cyclohexanepentanoic Acid, cyclohexanepentanoic acid]
